In brackets after ≈: the same amount, converted by molar mass.
What was measured:
Format in all cases: functional
[1] = tested on: Saccharomyces cerevisiae; test: Antifungal activity against Saccharomyces cerevisiae ATCC 9763 after 24 hrs by micro broth dilution method; settings: ATCC 9763, 24 h
[2] = tested on: Cyberlindnera jadinii; test: Antifungal activity against Candida utilis ATCC 9950 after 24 hrs by micro broth dilution method; settings: Williopsis jadinii, ATCC 9950, 24 h
[3] = tested on: Aspergillus flavus; test: Antifungal activity against Aspergillus flavus ATCC 204304 after 24 hrs by micro broth dilution method; settings: ATCC 204304, 24 h
[4] = Antifungal activity against Candida mycoderma ATCC 9888 after 24 hrs by micro broth dilution method; settings: Candida vini
[5] = tested on: Candida albicans; test: Antifungal activity against Candida albicans ATCC 10231 after 24 hrs by micro broth dilution method; settings: ATCC 10231, 24 h
[6] = tested on: Micrococcus luteus; test: Antibacterial activity against Micrococcus luteus ATCC 4698 by micro broth dilution method; settings: NCTC 2665
[7] = tested on: Escherichia coli; test: Antibacterial activity against Escherichia coli DH52 by micro broth dilution method
[8] = tested on: Staphylococcus aureus; test: Antibacterial activity against methicillin-resistant Staphylococcus aureus N315 by micro broth dilution method
[9] = tested on: Escherichia coli; test: Antibacterial activity against Escherichia coli JM109 by micro broth dilution method
[10] = tested on: Shigella dysenteriae; test: Antibacterial activity against Shigella dysenteriae by micro broth dilution method
[11] = tested on: Salmonella enterica; test: Antibacterial activity against Salmonella enterica ATCC 14028 by micro broth dilution method
[12] = Antibacterial activity against Bacillus proteus ATCC 13315 by micro broth dilution method
[13] = tested on: Staphylococcus aureus; test: Antibacterial activity against Staphylococcus aureus ATCC 25923 by micro broth dilution method
[14] = tested on: Pseudomonas aeruginosa; test: Antibacterial activity against Pseudomonas aeruginosa ATCC 27853 by micro broth dilution method
[15] = tested on: Bacillus spizizenii; test: Antibacterial activity against Bacillus subtilis ATCC 6633 by micro broth dilution method

Row | Structure (SMILES) | MIC80 [1] [mg/L] | MIC80 [2] [mg/L] | MIC80 [3] [mg/L] | MIC80 [4] [mg/L] | MIC80 [5] [mg/L] | MIC [6] [mg/L] | MIC [7] [mg/L] | MIC [8] [mg/L] | MIC [9] [mg/L] | MIC [10] [mg/L] | MIC [11] [mg/L] | MIC [12] [mg/L] | MIC [13] [mg/L] | MIC [14] [mg/L] | MIC [15] [mg/L]
1 | OC(Cn1cncn1)(Cn1cncn1)c1ccc(F)cc1F [FLUCONAZOLE] | 16 (≈ 52.2 µM) | 8 (≈ 26.1 µM) | 256 (≈ 836 µM) | 4 (≈ 13.1 µM) | 1 (≈ 3.27 µM) | – | – | – | – | – | – | – | – | – | –
2 | CCn1c(CN2CCN(c3cc4c(cc3F)c(=O)c(C(=O)O)cn4C3CC3)CC2)nc2ccccc21 | 128 (≈ 261 µM) | 2 (≈ 4.09 µM) | 4 (≈ 8.17 µM) | 2 (≈ 4.09 µM) | 2 (≈ 4.09 µM) | 2 (≈ 4.09 µM) | 2 (≈ 4.09 µM) | 128 (≈ 261 µM) | 128 (≈ 261 µM) | 8 (≈ 16.3 µM) | 0.5 (≈ 1.02 µM) | 0.5 (≈ 1.02 µM) | 256 (≈ 523 µM) | 2 (≈ 4.09 µM) | 0.5 (≈ 1.02 µM)
3 | CCn1cc(C(=O)O)c(=O)c2cc(F)c(N3CCN(Cc4nc5ccc(Cl)cc5[nH]4)CC3)cc21 | 8 (≈ 16.5 µM) | 8 (≈ 16.5 µM) | 2 (≈ 4.13 µM) | 8 (≈ 16.5 µM) | 32 (≈ 66.1 µM) | 1 (≈ 2.07 µM) | 0.5 (≈ 1.03 µM) | 1 (≈ 2.07 µM) | 2 (≈ 4.13 µM) | 1 (≈ 2.07 µM) | 0.5 (≈ 1.03 µM) | 0.5 (≈ 1.03 µM) | 2 (≈ 4.13 µM) | 1 (≈ 2.07 µM) | 16 (≈ 33.1 µM)
4 | CCCCCn1c(CN2CCN(c3cc4c(cc3F)c(=O)c(C(=O)O)cn4CC)CC2)nc2ccccc21 | 64 (≈ 123 µM) | 32 (≈ 61.6 µM) | 64 (≈ 123 µM) | 8 (≈ 15.4 µM) | 4 (≈ 7.7 µM) | 16 (≈ 30.8 µM) | 8 (≈ 15.4 µM) | 64 (≈ 123 µM) | 128 (≈ 246 µM) | 128 (≈ 246 µM) | 256 (≈ 493 µM) | 8 (≈ 15.4 µM) | 512 (≈ 985 µM) | 64 (≈ 123 µM) | 32 (≈ 61.6 µM)
5 | O=C(O)c1cn(C2CC2)c2cc(N3CCN(Cc4nc5ccc(Br)cc5[nH]4)CC3)c(F)cc2c1=O | 4 (≈ 7.4 µM) | 4 (≈ 7.4 µM) | 2 (≈ 3.7 µM) | 16 (≈ 29.6 µM) | 2 (≈ 3.7 µM) | 16 (≈ 29.6 µM) | 8 (≈ 14.8 µM) | 4 (≈ 7.4 µM) | 32 (≈ 59.2 µM) | 16 (≈ 29.6 µM) | 4 (≈ 7.4 µM) | 8 (≈ 14.8 µM) | 64 (≈ 118 µM) | 1 (≈ 1.85 µM) | 16 (≈ 29.6 µM)
6 | CCn1cc(C(=O)O)c(=O)c2cc(F)c(N3CCN(Cc4nc5ccc(F)cc5[nH]4)CC3)cc21 | 0.5 (≈ 1.07 µM) | 0.25 (≈ 0.535 µM) | 0.5 (≈ 1.07 µM) | 1 (≈ 2.14 µM) | 2 (≈ 4.28 µM) | 0.5 (≈ 1.07 µM) | 16 (≈ 34.2 µM) | 16 (≈ 34.2 µM) | 32 (≈ 68.5 µM) | 8 (≈ 17.1 µM) | 8 (≈ 17.1 µM) | 2 (≈ 4.28 µM) | 16 (≈ 34.2 µM) | 4 (≈ 8.56 µM) | 8 (≈ 17.1 µM)
7 | CCn1cc(C(=O)O)c(=O)c2cc(F)c(N3CCN(Cc4nc5ccccc5n4Cc4ccc(F)cc4)CC3)cc21 | 8 (≈ 14.3 µM) | 8 (≈ 14.3 µM) | 16 (≈ 28.7 µM) | 32 (≈ 57.4 µM) | 8 (≈ 14.3 µM) | 8 (≈ 14.3 µM) | 32 (≈ 57.4 µM) | 16 (≈ 28.7 µM) | 32 (≈ 57.4 µM) | 16 (≈ 28.7 µM) | 8 (≈ 14.3 µM) | 32 (≈ 57.4 µM) | 8 (≈ 14.3 µM) | 8 (≈ 14.3 µM) | 8 (≈ 14.3 µM)
8 | CCCCCCCCCCn1c(CN2CCN(c3cc4c(cc3F)c(=O)c(C(=O)O)cn4CC)CC2)nc2ccccc21 | 4 (≈ 6.78 µM) | 4 (≈ 6.78 µM) | 4 (≈ 6.78 µM) | 8 (≈ 13.6 µM) | 16 (≈ 27.1 µM) | 16 (≈ 27.1 µM) | 0.5 (≈ 0.848 µM) | 8 (≈ 13.6 µM) | 32 (≈ 54.3 µM) | 8 (≈ 13.6 µM) | 8 (≈ 13.6 µM) | 8 (≈ 13.6 µM) | 32 (≈ 54.3 µM) | 4 (≈ 6.78 µM) | 4 (≈ 6.78 µM)

Source: ChEMBL document CHEMBL3769303, “Discovery of membrane active benzimidazole quinolones-based topoisomerase inhibitors as potential DNA-binding antimicrobial agents” (Eur J Med Chem, 2016)
